Experimental data as given in ChEMBL document CHEMBL4706557, “Synthesis and in vitro and in vivo biological evaluation of novel derivatives of flexicaulin A as antiproliferative agents” (Eur J Med Chem, 2020).
Activity calls are given as the source filed them. The rule behind the calls is not given here.

What was measured:
[1] = Toxicity in nude BALB/c mouse xenografted with human EC109 cells assessed as change in body weight at 20 to 40 mg/kg, ip administered every day for 14 days; assay type: organism-based; settings: in vivo, 336 h, dose 20-40 mg/kg, time 14 day
ECa-109 cell line [2] = test: Antitumor activity against human EC109 cells xenografted in nude BALB/c mouse assessed as reduction in tumor weight at 40 mg/kg, ip administered every day for 14 days; assay type: functional, organism-based; settings: time 14.0 day
MGC-803 = test: Antiproliferative activity against human MGC-803 cells assessed as inhibition of cell growth incubated for 72 hrs by SRB assay; assay type: functional, cell-based; settings: MGC-803, 72 h
GES1 = test: Cytotoxicity against human GES1 cells assessed as reduction in survival rate after 24 to 72 hrs by SRB assay; assay type: cell-based; settings: time 24-72 hrs
HUVEC = test: Cytotoxicity against HUVEC assessed as inhibition of cell growth incubated for 72 hrs by SRB assay; assay type: cell-based; settings: Homo sapiens
ECa-109 cell line [3] = test: Induction of apoptosis in human EC-109 cells assessed as apoptotic rate at 0.75 uM after 48 hrs by Annexin V-FITC/propidium iodide staining based flow cytometry (reference value: 3.2 %); assay type: functional
ECa-109 cell line [4] = test: Induction of mitochondrial depolarization in human EC-109 cells assessed as depolarized cell population at 0.75 uM measured after 24 hrs by JC1 dye based flow cytometry (reference value: 4.2 %); assay type: functional
ECa-109 cell line [5] = test: Induction of apoptosis in human EC109 cells assessed as increase in cleaved caspase 9 expression after 24 hrs by Western blot analysis; assay type: functional, cell-based
ECa-109 cell line [6] = test: Induction of apoptosis in human EC109 cells assessed as increase in cleaved caspase 7 expression after 24 hrs by Western blot analysis; assay type: functional, cell-based
ECa-109 cell line [7] = test: Induction of apoptosis in human EC109 cells assessed as reduction in Bcl-2 protein expression incubated for 24 hrs by Western blot analysis; assay type: functional, cell-based
ECa-109 cell line [8] = test: Induction of apoptosis in human EC109 cells assessed as increase in Bad expression after 24 hrs by Western blot analysis; assay type: functional, cell-based
ECa-109 cell line [9] = test: Induction of apoptosis in human EC109 cells assessed as increase in BimL expression after 24 hrs by Western blot analysis; assay type: functional, cell-based
ECa-109 cell line [10] = test: Induction of apoptosis in human EC109 cells assessed as increase in BimS expression after 24 hrs by Western blot analysis; assay type: functional, cell-based
ECa-109 cell line [11] = test: Induction of apoptosis in human EC109 cells assessed as increase in Bax/Bcl2 ratio at 0.75 to 3 uM after 24 hrs by Western blot analysis; assay type: functional, cell-based; settings: dose 0.75-3 µM
ECa-109 cell line [12] = test: Induction of apoptosis in human EC109 cells assessed as increase in cytochrome C protein expression incubated for 24 hrs by Western blot analysis; assay type: functional, cell-based
ECa-109 cell line [13] = test: Induction of apoptosis in human EC109 cells assessed as increase in phosphorylated MKK4 expression incubated for 24 hrs by Western blot analysis; assay type: functional, cell-based
ECa-109 cell line [14] = test: Induction of apoptosis in human EC109 cells assessed as activation of c-jun phosphorylation at Ser63 residue at 0.75 to 3 uM incubated for 24 hrs by Western blot analysis; assay type: functional, cell-based; settings: dose 0.75-3 µM
ECa-109 = test: Inhibition of clone formation in human EC109 cells at 0.5 uM after 7 days in presence of N-acetylcysteine by crystal violet staining based assay; assay type: functional, cell-based; settings: time 7.0 day
ECa-109 cell line [15] = test: Induction of morphological changes in human EC109 cells assessed as appearance of contracted and rounded cells; assay type: functional, cell-based
ECa-109 cell line [16] = test: Induction of morphological changes in human EC109 cells assessed as appearance of contracted and rounded cells in presence of N-acetylcysteine; assay type: functional, cell-based
ECa-109 cell line [17] = test: Induction of morphological changes in human EC109 cells assessed as decrease in number of cells in presence of N-acetylcysteine; assay type: functional, cell-based
ECa-109 cell line [18] = test: Induction of apoptosis in human EC109 cells assessed as increase in intracellular ROS level at 3 uM incubated for 24 hrs by DCFH-DA staining based flow cytometry analysis (reference value: 0.6 %); assay type: functional
ECa-109 cell line [19] = test: Induction of apoptosis in human EC-109 cells assessed as apoptotic rate at 3 uM after 24 hrs by Annexin V-FITC/propidium iodide staining based flow cytometry (reference value: 5.7 %); assay type: functional
ECa-109 cell line [20] = test: Induction of apoptosis in human EC-109 cells assessed as apoptotic rate at 3 uM after 48 hrs by Annexin V-FITC/propidium iodide staining based flow cytometry (reference value: 3.8 %); assay type: functional
ECa-109 cell line [21] = test: Induction of apoptosis in human EC109 cells assessed as change in phosphorylated ASK1 expression at 3 uM incubated for 24 hrs in presence of N-acetylcysteine by Western blot analysis; assay type: functional, cell-based
ECa-109 cell line [22] = test: Induction of apoptosis in human EC109 cells assessed as increase in cleaved caspase 3 expression at 3 uM incubated for 24 hrs in presence of N-acetylcysteine by Western blot analysis; assay type: functional, cell-based
ECa-109 cell line [23] = test: Induction of apoptosis in human EC-109 cells xenografted in BALB/c mouse assessed as decrease in Bcl-2 expression in tumor tissue at 20 to 40 mg/kg, ip QD for 14 days by Western blotting analysis relative to control; assay type: functional, organism-based; settings: dose 20-40 mg/kg, time 14.0 day
ECa-109 cell line [24] = test: Induction of apoptosis in human EC-109 cells xenografted in BALB/c mouse assessed as increase in phosphorylated ASK1 in tumor tissue at 20 to 40 mg/kg, ip QD for 14 days by Western blotting analysis; assay type: functional, organism-based; settings: dose 20-40 mg/kg, time 14.0 day
ECa-109 cell line [25] = test: Induction of apoptosis in human EC-109 cells xenografted in BALB/c mouse assessed as increase in phosphorylated JNK in tumor tissue at 20 to 40 mg/kg, ip QD for 14 days by Western blotting analysis; assay type: functional, organism-based; settings: dose 20-40 mg/kg, time 14.0 day
[26] = Toxicity in BALB/c mouse assessed as effect on WBC level at 40 mg/kg, ip administered once daily for 14 days (reference value: 4.42 +/- 0.79 10^9/L); assay type: organism-based; settings: in vivo, 336 h, time 14 day
[27] = Toxicity in BALB/c mouse assessed as HGB at 40 mg/kg, ip administered once daily for 14 days (reference value: 153.20 +/- 3.87 g/L); assay type: organism-based; settings: in vivo, 336 h, time 14 day
[28] = Toxicity in BALB/c mouse assessed as MCV at 20 mg/kg, ip administered once daily for 14 days (reference value: 49.90 +/- 0.37 fL); assay type: organism-based; settings: in vivo, 336 h, time 14 day
[29] = Toxicity in BALB/c mouse assessed as RDW at 40 mg/kg, ip administered once daily for 14 days (reference value: 14.18 +/- 0.26 %); assay type: organism-based; settings: in vivo, 336 h, time 14 day
[30] = Toxicity in BALB/c mouse assessed as PLT at 20 mg/kg, ip administered once daily for 14 days (reference value: 788.60 +/- 71.35 10^9/L); assay type: organism-based; settings: in vivo, 336 h, time 14 day
[31] = Toxicity in BALB/c mouse assessed as PLT at 40 mg/kg, ip administered once daily for 14 days (reference value: 788.60 +/- 71.35 10^9/L); assay type: organism-based; settings: in vivo, 336 h, time 14 day
[32] = Toxicity in BALB/c mouse assessed as effect on red pulp and white pulp distribution in spleen at 20 to 40 mg/kg, ip administered once daily for 14 days by HE staining based assay; assay type: organism-based; settings: in vivo, 336 h, dose 20-40 mg/kg, time 14 day
[33] = Toxicity in BALB/c mouse assessed as abnormalities in lungs at 20 to 40 mg/kg, ip administered once daily for 14 days by HE staining based assay; assay type: organism-based; settings: in vivo, 336 h, dose 20-40 mg/kg, time 14 day

IC50 (MGC-803): 200 nM
SMILES: C=C1C(=O)[C@@]23[C@H](O)C[C@@H]4C(C)(C)CCC[C@@]4(COC(C)=O)[C@@H]2[C@@H](O)C[C@H]1[C@H]3OC(=O)c1ccc(CCl)cc1
Activity [1]: Non-Toxic
inhibition (ECa-109 cell line [2]): Active
inhibition (INH) (GES1): Dose-dependent effect
IC50 (HUVEC): 490 nM
Activity (ECa-109 cell line [3]): 78.9%
Activity (ECa-109 cell line [4]): 26.3%
Activity (ECa-109 cell line [5]): Dose-dependent effect
Activity (ECa-109 cell line [6]): Dose-dependent effect
Activity (ECa-109 cell line [7]): Dose-dependent effect
Activity (ECa-109 cell line [8]): Dose-dependent effect
Activity (ECa-109 cell line [9]): Dose-dependent effect
Activity (ECa-109 cell line [10]): Dose-dependent effect
Activity (ECa-109 cell line [11]): Active
Activity (ECa-109 cell line [12]): Dose-dependent effect
Activity (ECa-109 cell line [13]): Dose-dependent effect
Activity (ECa-109 cell line [14]): Active
inhibition (ECa-109): inactive
Activity (ECa-109 cell line [15]): Active
Activity (ECa-109 cell line [16]): inactive
Activity (ECa-109 cell line [17]): inactive
Activity (ECa-109 cell line [18]): 47%
Activity (ECa-109 cell line [19]): 33.7%
Activity (ECa-109 cell line [20]): 88.2%
Activity (ECa-109 cell line [21]): inactive
Activity (ECa-109 cell line [22]): inactive
Activity (ECa-109 cell line [23]): Active
Activity (ECa-109 cell line [24]): Active
Activity (ECa-109 cell line [25]): Active
Activity [26]: 4.21 10^9/L
Activity [27]: 144.4 g/L
Activity [28]: 49.5 fL
Activity [29]: 14.73%
Activity [30]: 754.8 10^9/L
Activity [31]: 832.8 10^9/L
Activity [32]: Non-Toxic
Activity [33]: Non-Toxic
